The values that follow come from US20260314597A1, “A NOVEL APPROACH TO INTERFERE IN THE PHENYLPROPANOID BIOSYNTHETIC PATHWAY TO REDUCE PINK-RIB DISORDER IN FRESH LETTUCE” (University of Florida Research Foundation, Inc., priority 2022, published 2026).

Test [1] concerns romaine lettuce midribs. Briefly: Pink rib discoloration of romaine midribs / whole leaflets dipped 1 min, stored at 10° C. Type of test: in vivo. As for the experimental part:
Pink rib discoloration in excised midrib segments of romaine lettuce was shown above. […] 4.3 mM of melatonin solution was prepared in water containing 0.5% DMSO (dimethyl sulfoxide), and control samples were treated with water containing 0.5% DMSO.
1 mM of melatonin solution was prepared in water containing 0.5% DMSO (dimethyl sulfoxide) and control samples were treated with water containing 0.5% DMSO.

Test [2] concerns nonenzymatic antioxidants, such as phenolics, flavonoids, and anthocyanins. The note with it: melatonin; cited from earlier work.
Test [3] deals with fresh-cut iceberg lettuce. The note with it: cited from earlier work.
For test [4], the system named is fresh-cut cherimoya. The note with it: L-cysteine 0.5% or 41.3 mM; 0° C.; cited from earlier work.
The test system of test [5] is PPO. As to conditions: role: inhibitor; L-cysteine 1% or 82.5 mM; after 2 d and up to 8 d at 1° C.; cited from earlier work.

On to `COc1ccc2[nH]cc(CCNC(C)=O)c2c1` [melatonin], for which the “pink rib discoloration vs control” value in test [1] (melatonin 1 mM in 0.5% DMSO, 4 days) is recorded as “less pink rib discoloration than control samples”; in test [1] (melatonin 4.3 mM in 0.5% DMSO, five days, whole leaflet), “less pink rib discoloration than control samples”. In test [2], the “nonenzymatic antioxidants (phenolics, flavonoids, anthocyanins)” value is “enhances nonenzymatic antioxidants”.

`N[C@@H](CS)C(=O)O` [L-cysteine]: the “reduction of discoloration of midrib surface area” value in test [3] (L-cysteine 8.3 mM, 6 d at 8° C., vs control) is recorded as “greater than 80%”. In test [3] (L-cysteine 0.1% or 8.3 mM, 8° C., untreated discolored after 2 d), the “delay of pink rib development” value was 6 days. Besides, the “pink rib development, share of midrib surface area” value in test [3] (L-cysteine 0.1% or 8.3 mM, 6 d at 8° C.) is on record as < 20 % of the midrib surface area. Moreover, the “delay of pulp browning” value in test [4] is reported as “up to 12 d”. Also, the PPO activity result in test [5] is reported as “significantly declined”.
